Tests used:
[1] = tested on: C. elegans host defense pathway genes; experiment: nanoString expression of 115 immune- and stress-responsive genes; settings: 100 μM LK molecules, 16 h
Procedure: The ratio of MIC to EC was determined for each of the 69 compounds.
Analysis of the expression of 115 immune- and stress-responsive genes using nanoString technology. Download Table S1, XLSX file, 0.02 MB.
For nanoString-based (nanoString Technologies, Seattle, WA) experiments, 2,000 wild-type, young adult worms were exposed to 100 μM LK molecules or DMSO control in S Basal medium in 6-well plates for 16 h. RNA purification and gene expression analysis were performed according to nanoString guidelines. Two biological replicates were tested for each condition.

[2] = tested on: C. elegans exposed to P. aeruginosa strain PA14; experiment: P. aeruginosa slow-killing assay (agar); format: in vivo, Caenorhabditis elegans; settings: wild-type worms, 50 µM, Fig 8 (DMSO 58.9)
Description: The finding that each of the compounds activated PMK-1/p38 MAPK targets was of interest, as this pathway is associated with enhanced immunity against multiple bacterial pathogens in agar-based C. elegans assays. Therefore, we tested whether these compounds could promote survival in an agar-based, high-colonization pathogenesis model known as slow killing. Loss of PMK-1 activity substantially compromises survival in the slow-killing assay ([16], [47]). Wild-type, young adult worms were exposed to P. aeruginosa strain PA14 on agar plates impregnated with each of the five compounds. […] To see whether this depended upon the PMK-1 pathway, LK32, LK38, and LK56 were retested in worms where RNAi was used to knock down pmk-1/MAPK or atf-7/ATF7 (a key transcription factor whose activity is modulated by PMK-1 [63, 64]) (Fig. 9; see Table S2 in the supplemental material for TD50 and overall statistical significance).
FIG 8 Four LK molecules extend C. elegans life span in the slow-killing assay. […] The data shown are from a representative replicate. Each of the three biological replicates was comprised of three plates per condition, with each plate containing ∼60 worms. Statistical significance was calculated using a log-rank test. Worms that left the surface of the plate were excluded from analysis (see Table S2 in the supplemental material for TD50 and exact P values).
FIG 9 Rescue in slow killing by a subset of LK compounds depends upon the PMK-1/p38 MAPK pathway. Wild-type L4 worms were reared on RNAi targeting pmk-1/p38 MAPK, atf-7/ATF-7, or empty vector and placed onto slow-killing plates containing DMSO or LK32 (A and B), LK38 (C and D), or LK56 (E and F) at 50 µM. Starting at 24 h, worms were scored every 12 h for survival until all worms perished. Each of the three biological replicates was comprised of three plates, each plate contained approximately 50 to 70 worms. Statistical significance was calculated using log-rank test (see Table S2 in the supplemental material for TD50 and exact P values). For vector RNAi, DMSO versus compound, P < 0.001 for LK38, LK56, and LK32.
Supplementary file : FIG S5 NSY-1 and SEK-1, upstream members of the PMK-1/p38 MAPK pathway, are required for LK38-mediated rescue. Young adult wild-type, nsy-1/MAP3K15(ag3), or sek-1/MAP2K6(km-4) mutants were exposed to P. aeruginosa in the slow-killing assay in the presence of DMSO or LK38. Data for each condition at each time point represent the average value for three plates from one representative replicate (of three replicates total). Each plate contained ∼60 worms. P values were calculated using a log-rank test (see Table S2 in the supplemental material for the TD50 and exact P values). For wild-type DMSO versus LK38 P < 0.001. No statistically significant difference was measured between LK38 and DMSO for either mutant. Download FIG S5, PDF file, 0.1 MB.
Slow-killing (SK) plates were made as previously reported ([92]). Compounds were added to molten SK agar before pouring plates. After solidifying, 40 µl of PA14 overnight culture was spread on plates before incubating plates at 37°C for 24 h, followed by 25°C for 24 h. 5-fluoro-2′-deoxyuridine (FUDR) (0.1 mg/ml) was dropped on plates 30 min prior to picking worms, to ensure nematode sterility. Fifty to seventy L4-stage, wild-type worms were picked onto plates and scored every 12 h after the first 24 h, until all worms were dead. Three biological replicates were performed.

[3] = tested on: reactive oxygen species (ROS); experiment: DHE staining (ROS level); format: in vivo, Caenorhabditis elegans; settings: 50 or 100 µM, 10 h, no pathogen
Description: Previous work from our lab has established that the ESRE network plays an important role in the resistance of C. elegans to pyoverdine, the main virulence determinant in liquid killing, and recent evidence has shown that ESRE activation depends on increased reactive oxygen species (ROS) ([23], [38], [39]). To evaluate ESRE activation, worms carrying an hsp-16.1p::GFP reporter (which contains two ESRE motifs and was previously used as an indicator of ESRE activation [[39][–][41]]), were exposed to 50 or 100 μM LK35, LK38, LK56, juglone (positive control), or DMSO. […] ROS level was assessed based on the fluorescence of dihydroethidium (DHE; a ROS-specific dye) using a COPAS FlowSort for flow vermimetry.
Young adult wild-type (A), hsp-4p::GFP (B), hsp-16.1p::GFP (C), or rpt-3::GFP (D) worms were incubated with LK molecules at 50 or 100 µM, DMSO control, or positive controls. For panel A, the worms were treated with compound for 10 h, and then the worms were stained with 4 µM DHE for 1 h before washing and fluorescence measurement. For panels B to D, the worms were treated with compound for 15 h prior to fluorescence measurement. Mean values from at least three biological replicates are shown. *, P < 0.05; **, P < 0.01; ***, P < 0.001 (compared to the solvent control). P values were calculated using Student’s t test. Error bars represent the standard error of the mean. […]

## Cc1cc(C2CCCCC2)n(O)c(=O)c1 [Ciclopirox, reference compound]
[1]
  B0024.4 expression, induction: 1.09 fold
  C02B4.2 nhr-17 expression, induction: 5.80 fold
  C06B3.7 expression, induction: 3.19 fold
  C07G3.2 irg-1 expression, induction: 1.06 fold
  C12C8.1 hsp-70 expression, induction: 3.28 fold
  C15F1.7 sod-1 expression, induction: 2.15 fold
  C29F7.2 expression, induction: 10.38 fold
  C31A11.5 oac-6 expression, induction: 5.76 fold
  C32D5.12 expression, induction: 1.22 fold
  C32H11.1 expression, induction: 20.23 fold
  C32H11.3 expression, induction: 2.02 fold
  C34G6.4 pgp-2 expression, induction: 3.63 fold
  C37C3.10 expression, induction: 12.27 fold
  C37H5.8 hsp-6 expression, induction: 4.01 fold
  C49G7.5 irg-2 expression, induction: 3.65 fold
  F08F8.5 numr-1 expression, induction: 8.74 fold
  F08H9.4 expression, induction: 4.96 fold
  F14F9.3 expression, induction: 1.98 fold
  F22B5.4 expression, induction: 2.49 fold
  F22H10.2 expression, induction: 2.82 fold
  F26A3.4 expression, induction: 2.35 fold
  F35E8.11 cdr-1 expression, induction: 56.32 fold
  F35G2.4 phy-2 expression, induction: 1.70 fold
  F37B12.2 gcs-1 expression, induction: 1.30 fold
  F43E2.8 hsp-4 expression, induction: 10.74 fold
  F44E5.5 expression, induction: 2.67 fold
  F49F1.6 expression, induction: 2.55 fold
  F49F1.7 expression, induction: 15.81 fold
  F49H6.13 expression, induction: 2.90 fold
  F54B8.4 expression, induction: 6.33 fold
  F55G11.2 expression, induction: 1.86 fold
  F59A7.1 clec-206 expression, induction: 11.44 fold
  F59B10.4 expression, induction: 1.20 fold
  H12D21.1 nspa-1 expression, induction: 3.83 fold
  H23N18.1 ugt-13 expression, induction: 5.56 fold
  H23N18.3 ugt-8 expression, induction: 108.33 fold
  K05B2.4 expression, induction: 8.10 fold
  K08F4.7 gst-4 expression, induction: 2.79 fold
  K09A9.1 nipi-3 expression, induction: 2.12 fold
  K10D11.2 expression, induction: 2.25 fold
  K10G4.3 expression, induction: 2.60 fold
  R03D7.6 gst-5 expression, induction: 11.91 fold
  R08H2.1 dhs-23 expression, induction: 120.99 fold
  R10E8.3 expression, induction: 3.34 fold
  T19D12.3 expression, induction: 2.80 fold
  T19H12.1 ugt-9 expression, induction: 6.34 fold
  T21E8.1 pgp-6 expression, induction: 0.94 fold
  T22B7.3 expression, induction: 2.18 fold
  T24C4.4 expression, induction: 1.62 fold
  T24E12.5 expression, induction: 3.07 fold
  T27E4.3 hsp-16.48 expression, induction: 2.96 fold
  T27E4.8 hsp-16.1 expression, induction: 2.80 fold
  T27F6.8 expression, induction: 4.80 fold
  T28C12.4 expression, induction: 13.23 fold
  W02D9.10 expression, induction: 2.74 fold
  Y22D7AL.5 hsp-60 expression, induction: 2.19 fold
  Y38E10A.15 nspe-7 expression, induction: 1.84 fold
  Y46H3A.2 hsp-16.41 expression, induction: 2.63 fold
  Y46H3A.3 hsp-16.2 expression, induction: 2.71 fold
  Y56A3A.33 expression, induction: 3.70 fold
  Y58A7A.5 expression, induction: 1.48 fold
  ZC376.7 atfs-1 expression, induction: 3.27 fold
  ZC443.6 ugt-16 expression, induction: 52.72 fold
  ZK697.6 gst-21 expression, induction: 454.34 fold

## Cc1ccc(Nc2nc(N)c3ccccc3n2)cc1Cl [RPW-24, reference compound]
[2]
  TD50, slow killing: 63.7 h

## C=C(C)[C@H]1Cc2c(ccc3c2O[C@@H]2COc4cc(OC)c(OC)cc4[C@@H]2C3=O)O1 [rotenone]
[3]
  ROS level (DHE staining): significant increase in staining

Source: publication PMC7845594, “Novel Immune Modulators Enhance Caenorhabditis elegans Resistance to Multiple Pathogens” (mSphere, 2021)
